# Measurements published in article PMC12169663, “Deciphering the Tumor Uptake of Heterobivalent (SST2/Albumin) [^64Cu]Cu-NODAGA-cLAB-TATEs” (Journal of Medicinal Chemistry, 2025).
# *1 amine or outer side, *2 acyl side, *3 side chain or, on linkers, in order; H or OH if unused. Where a SMILES comes first, the peptide text is derived from it. Bridges are numbered along the chain shown (N, C = ends). [ ]: non-standard residue; d: D form. The star is where a group is joined. Ala(1-(4-CO-Ph)triazol-4-yl) = O=C([C@H](Cc1cn(-c2ccc(C(=O)[*:3])cc2)nn1)N[*:1])[*:2]; X1 = O=C(O)CN1CCN(CC(=O)O)CCN([C@H](CCC(=O)*)C(=O)O)CC1; X2 = Cc1ccc(CCCC(=O)NCCCC[C@H](N*)C(N)=O)cc1; AEEA = NCCOCCOCC(=O)O
# What was measured:
# [1] = target: T1, SST2 (Mus musculus, UniProt P30875); test: Saturation binding analysis to SST2 using intact MPC cells
# T1 construct: a mouse pheochromocytoma cell line (MPC) with a high endogenous abundance of SST2 was used; endogenous in cells; host or cells: MPC (mouse pheochromocytoma) cells, intact
# Experimental: Binding assay was performed as previously described. , A number of 3 × 10^5 cells/cm^2 were seeded in collagen-coated 48-well microplates (CELLSTAR 48 Well Cell Culture Multiwell Plates, Polystyrene, Greiner Bio-One, item no. 677180) and grown for 3 days. For binding assays, the cell culture medium was removed and replaced by fresh medium supplemented with the radioligand (Am = 25 MBq/nmol) at increasing final concentrations between 0.321 and 40 nM (final sample volume: 0.2 mL). Nonspecific cell binding was measured in the presence of nonlabeled DOTA-TATE or Acetyl-TATE at a final concentration of 1 μM. Nonspecific binding to plastic surfaces was determined in cell-free wells at radioligand concentrations of 0.312, 1.25, 5, and 20 nM (with and without 1 μM nonlabeled DOTA-TATE or Acetyl-TATE; the values at the other radioligand concentrations were derived by linear regression). Samples were incubated for 60 min at 37 °C. Incubation was stopped by washing with ice-cold Dulbecco’s PBS. Cells were lysed with 0.1 M NaOH containing 1% (w/v) SDS. Activity was measured in cell homogenates and in a series of radioligand standards containing increasing molar amounts between 0.06 and 8 pmol using the gamma counter Wizard (PerkinElmer). The protein content of cell homogenates was measured as described above. Measurements for total binding were performed in triplicate, while measurements for nonspecific binding were performed in duplicates.
# Calculations were performed as previously described. , Plots of “total binding” = f(radioligand) were analyzed by nonlinear regressions using the model of “one site-total, accounting for ligand depletion” as implemented in GraphPad Prism and plots of “nonspecific binding” = f(radioligand) were analyzed by linear regressions (Figure S3). For the ligand depletion model, the term “NS” was constrained to the respective slopes obtained by the linear regressions. The terms “SpecAct” (obtained with standard curves, Figure S4) and “Vol” (0.2 mL, assay volume) were also constrained. […]
# [2] = Plasma stability assay, mouse plasma; type: in vitro ADME
# Description: Previously, we discovered that the ^64Cu-labeled NODAGA-cLAB-TATEs with a primary amide functionality within the albumin-binding moiety are subject to a metabolic transformation in mouse plasma. In fact, the primary amide is slowly hydrolyzed to the carboxylic acid, which turned out to be catalyzed by plasma carboxylesterases as proven by blocking this transformation in the presence of bis-para-nitrophenylphosphate. […] As this transformation entails also an increase in the binding affinity to albumin, there might be effects on the biodistribution in mice, in particular the blood circulation time. To investigate this, NODAGA-cLAB6-TATE was designed, with cLAB6 (N3Bz-D-Lys(MPB)-NH2) representing the D-configured pendant of cLAB4 (N3Bz-L-Lys(MPB)-NH2). […] However, the apparent half-lives for both compounds (≈13 and >24 h) are longer compared to the half-lives previously determined for [ ^ 64 Cu]-Cu-NODAGA-cLAB3-TATE and [ ^ 64 Cu]-Cu-NODAGA-cLAB4-TATE (≈6 and ≈3 h, respectively). For better comparability, the stability of [ ^ 64 Cu]-Cu-NODAGA-cLAB4-TATE was again examined with the same mouse plasma batch used for [ ^ 64 Cu]-Cu-NODAGA-cLAB5-TATE and [ ^ 64 Cu]-Cu-NODAGA-cLAB4- scr TATE. […] Therefore, the discrepancy with our previously reported stability data in mouse plasma might result from differences in the activity of plasma carboxylesterases in the obtained mouse plasma. However, the rate of amide hydrolysis is indeed lower for [ ^ 64 Cu]-Cu-NODAGA-cLAB4- scr TATE, independent of the mouse plasma batch, which might indicate that the actual amino acid sequence in these peptides affects the recognition by the plasma carboxylesterases.
# 2 Stability of the ^64Cu-labeled TATE derivatives in mouse plasma. (A) Radio-HPLC chromatograms of [^64Cu]-Cu-NODAGA-cLAB5-TATE (red), [^64Cu]-Cu-NODAGA-cLAB6-TATE (green), and [^64Cu]-Cu-NODAGA-cLAB- scr TATE (blue) after ^64Cu-labeling and incubation in mouse plasma for 24 h show the transformation of [^64Cu]-Cu-NODAGA-cLAB5-TATE and [^64Cu]-Cu-NODAGA-cLAB4- scr TATE into a metabolite of higher retention time (see the Discussion for explanation). (B) Plot of residual intact radioligands upon incubation with mouse plasma including nonlinear regression (black line) according to one-phase decay for [^64Cu]-Cu-NODAGA-cLAB5-TATE (red circles). The dotted lines represent fractions of 0.5 and 0.9. Data shown are mean values (±SD) from 1 to 3 experiments (each experiment was performed in single execution). […]
# (§1) Plasma stability of the radioligands was done as previously described for NODAGA-cLAB-TATE and NODAGA-NES-TATEs. , Briefly, an aliquot of the radioligand was added to plasma and stability was assessed at different time points by withdrawing an aliquot, followed by protein precipitation and analysis by radio-HPLC.
# [3] = Plasma stability assay, human plasma; type: in vitro ADME; settings: 37 °C, up to 24 h, single experiment, read-out: t1/2 (plasma), human
# Description: Previously, we discovered that the ^64Cu-labeled NODAGA-cLAB-TATEs with a primary amide functionality within the albumin-binding moiety are subject to a metabolic transformation in mouse plasma. In fact, the primary amide is slowly hydrolyzed to the carboxylic acid, which turned out to be catalyzed by plasma carboxylesterases as proven by blocking this transformation in the presence of bis-para-nitrophenylphosphate. […] As this transformation entails also an increase in the binding affinity to albumin, there might be effects on the biodistribution in mice, in particular the blood circulation time. To investigate this, NODAGA-cLAB6-TATE was designed, with cLAB6 (N3Bz-D-Lys(MPB)-NH2) representing the D-configured pendant of cLAB4 (N3Bz-L-Lys(MPB)-NH2). […] However, the apparent half-lives for both compounds (≈13 and >24 h) are longer compared to the half-lives previously determined for [ ^ 64 Cu]-Cu-NODAGA-cLAB3-TATE and [ ^ 64 Cu]-Cu-NODAGA-cLAB4-TATE (≈6 and ≈3 h, respectively). […]
# as §1
# [4] = tested on: MPC cells; test: Cell binding and uptake (internalization) in MPC cells; type: cell-based, mouse
# Experimental: Furthermore, the receptor-mediated endocytosis (referred to as internalization) of the novel compounds was assessed. The values for the internalized fraction (or “acid wash” resistant fraction) were >50% (Figure S5), which might indicate a similar pharmacological behavior of these ligands upon binding to SST2 as the parent ligand TATE.
# Cell binding and uptake were measured as previously described. , MPC cells were seeded into collagen-coated 24-well microplates and cultivated for 4 days. All washing steps were performed using PBS containing 0.9 mM CaCl2 and 0.5 mM MgCl2. Total radioligand uptake was measured after incubation with the radioligand (A m = 30 GBq/μmol) at a final concentration of 20 nM in RPMI 1640 medium with GlutaMAX supplement (Thermo Fisher Scientific) for 1 h at 37 and 4 °C. Nonspecific binding was determined in the presence of 20 μM Acetyl-TATE. The uptake fraction was measured after acid wash of cell surface-bound radioligand with wash buffer containing 0.05 M glycine, pH 2.8, for 5 min. The activity of cell homogenates was measured using the γ counter Wizard (PerkinElmer). The protein content of cell homogenates was measured as described above.
# Figure S5: Cell binding data
# Data shown in A and B are mean values (±SD) of one experiment (NODAGA-cLAB(5/6)- TATE and NODAGA-cLAB4-scrTATE) or 3 experiments (±SEM, DOTA-EB-TATE), which were performed in sextuplicate. In C, the amount of specific “internalized” (acid resistant) radioligand (red bars in A, mean values) is expressed as percentage of specific total -bound radioligand (blue bars in A, mean values). The difference to 100% was assigned to “surface - bound” radioligand. For a better overview, the compound names were abbreviated. […]
# specific binding of radioligand
# Incubation at 37°C for 1 h
# (% dose/mg of protein) Washing with
# Incubation at 4°C for 1 h […]
# (1 picture or pasted object on this page, not shown here)
# [5] = n-Octanol/PBS distribution coefficient (log D7.4)
# Experimental: The log D7.4 values of the ^64Cu-labeled peptides were determined with the octanol partitioning method.
# The determination of the log D7.4 value was done in triplicate as previously described. , Briefly, a sample of the radioligand was added to the 1:1 mixture of PBS/n-octanol. The radioactivity in a defined volume of each layer was measured (ISOMED 2100). The distribution coefficient was expressed as the logarithm of the ratio of counts per minute (cpm) measured in the n-octanol phase to the cpm measured in the PBS phase.
# [6] = target: human serum albumin (HSA) (Homo sapiens, UniProt P02768); test: Radiometric ultrafiltration assay for binding to HSA
# Chain of human serum albumin (HSA) (P02768 25-609): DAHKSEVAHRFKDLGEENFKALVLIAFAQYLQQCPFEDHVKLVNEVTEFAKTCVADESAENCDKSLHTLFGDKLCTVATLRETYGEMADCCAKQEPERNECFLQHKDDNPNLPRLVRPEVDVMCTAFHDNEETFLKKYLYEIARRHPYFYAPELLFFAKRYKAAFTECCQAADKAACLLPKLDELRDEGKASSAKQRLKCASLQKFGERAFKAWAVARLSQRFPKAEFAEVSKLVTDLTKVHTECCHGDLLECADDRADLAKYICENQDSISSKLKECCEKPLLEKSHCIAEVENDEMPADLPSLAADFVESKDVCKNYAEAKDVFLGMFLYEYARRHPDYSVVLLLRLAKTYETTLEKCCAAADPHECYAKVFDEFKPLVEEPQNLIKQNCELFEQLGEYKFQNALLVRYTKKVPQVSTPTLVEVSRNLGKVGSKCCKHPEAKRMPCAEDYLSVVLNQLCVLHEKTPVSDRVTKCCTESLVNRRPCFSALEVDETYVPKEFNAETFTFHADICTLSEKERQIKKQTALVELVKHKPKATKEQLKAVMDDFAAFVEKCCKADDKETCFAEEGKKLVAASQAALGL
# Experimental: The ultrafiltration assay used to quantify the binding of the ^64Cu-labeled peptides to HSA was performed as previously described for NODAGA-cLAB-TATEs. , Briefly, a constant activity amount of the radioligands (10–15 MBq) were mixed with different HSA concentrations (200 nM–1.4 mM). Aliquots were loaded into the ultrafiltration devices (4104 centrifugal filter units by Millipore; 30 000 Da nominal molecular weight limit, methylcellulose micropartition membranes) and centrifuged. After centrifugation, aliquots from the top and bottom fractions were measured in a γ-counter (PerkinElmer, Wizard^2 2480 automatic gamma counter). The retained fraction was calculated as a quotient of these measurements. The dissociation constant, K d, was calculated using the Morrison equation.
# T1 sequence (P30875 whole entry): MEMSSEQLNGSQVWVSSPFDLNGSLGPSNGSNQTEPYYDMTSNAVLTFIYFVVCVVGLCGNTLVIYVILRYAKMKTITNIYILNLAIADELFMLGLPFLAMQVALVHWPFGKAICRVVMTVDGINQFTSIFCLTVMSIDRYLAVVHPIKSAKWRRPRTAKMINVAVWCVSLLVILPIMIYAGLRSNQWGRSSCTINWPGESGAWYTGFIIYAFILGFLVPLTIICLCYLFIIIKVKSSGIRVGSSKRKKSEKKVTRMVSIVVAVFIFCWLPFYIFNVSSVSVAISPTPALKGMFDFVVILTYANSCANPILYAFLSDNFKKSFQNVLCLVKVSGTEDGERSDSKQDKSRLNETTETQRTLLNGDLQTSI
smiles,measurement,setting,value
"Cc1ccc(CCCC(=O)NCCCC[C@H](NC(=O)c2ccc(-n3cc(C[C@H](NC(=O)CC[C@H](C(=O)O)N4CCN(CC(=O)O)CCN(CC(=O)O)CC4)C(=O)NCCOCCOCC(=O)N[C@@H](CCCCN)C(=O)N[C@H]4CSSC[C@@H](C(=O)N[C@H](C(=O)O)[C@@H](C)O)NC(=O)[C@@H](Cc5c[nH]c6ccccc56)NC(=O)[C@@H](Cc5ccccc5)NC(=O)[C@H]([C@@H](C)O)NC(=O)[C@H](Cc5ccc(O)cc5)NC4=O)nn3)cc2)C(N)=O)cc1 [[64Cu]Cu-NODAGA-cLAB4-scrTATE, metal not drawn] (X1-[Ala(1-(4-CO-Ph)triazol-4-yl)](X2)[AEEA]KCYT[dF][dW]CT-OH; disulfide 4-9)",Kd [SST2],"[1]; 60 min 37 °C, mean (±SEM) of 2–4 experiments",no binding was detected and n.b.
same,Bmax,[1]; mean (±SEM),n.b.
same,half-life,"[2]; 37 °C, up to 24 h, single experiment, read-out: t1/2 (plasma), mouse",> 24 h
same,hydrolysis of the primary amide in mouse plasma,"[2]; 24 h, radio-HPLC",hydrolyzed
same,half-life,[3],> 24 h
same,binding in the cell binding and uptake assay,"[4]; MPC cells, 20 nM, 1 h",no binding at all
same,specific binding of radioligand,"[4]; incubation at 4 °C for 1 h, washing with PBS pH 7.4, 20 nM",0.01 % dose/mg of protein
same,specific binding of radioligand,"[4]; incubation at 4 °C for 1 h, washing with glycine buffer pH 2.8, 20 nM",0.03 % dose/mg of protein
same,specific binding of radioligand,"[4]; incubation at 37 °C for 1 h, washing with PBS pH 7.4 (total bound), 20 nM",0.02 %dose/mg of protein
same,specific binding of radioligand,"[4]; incubation at 37 °C for 1 h, washing with glycine buffer pH 2.8 (acid resistant), 20 nM",0.04 %dose/mg of protein
same,logD,[5],-2.17
same,Kd,[6],42 µM
